Data as given in the NIST ThermoML archive (doi:10.1007/s10765-013-1526-8).

Experiments:
[1] = xn = mol fraction of the nth substance listed; settings: 101 kPa, Liquid; for speed of sound: Sing-around technique in a fixed-path interferometer
[2] = refractive index (Na D-line) (dimensionless); xn = mol fraction of the nth substance listed; settings: 101 kPa, Liquid

Brc1ccccc1 [bromobenzene] + CCCCC(CC)CO
Settings	mass density, [1] [kg/m3]	refractive index, [2]	speed of sound, [1] [m/s]	viscosity, [1] [mPa·s]
298.15 K, x1 = 0.0623	846.06	1.4348	1305	7.004
298.15 K, x1 = 0.1321	869.44	1.4416	1295	5.672
298.15 K, x1 = 0.202	895.09	1.4486	1290	4.56
298.15 K, x1 = 0.2694	924.23	1.4554	1285	3.717
298.15 K, x1 = 0.336	956.85	1.4625	1281	3.044
298.15 K, x1 = 0.3981	991.69	1.4693	1279	2.553
298.15 K, x1 = 0.4625	1031.18	1.4767	1277	2.187
298.15 K, x1 = 0.5272	1074.92	1.4844	1273	1.923
298.15 K, x1 = 0.5918	1122.9	1.4925	1268	1.728
298.15 K, x1 = 0.6627	1179.58	1.502	1259	1.594
298.15 K, x1 = 0.7278	1235.29	1.5112	1248	1.49
298.15 K, x1 = 0.7941	1295.12	1.5212	1236	1.444
298.15 K, x1 = 0.8633	1359.7	1.5325	1216	1.359
298.15 K, x1 = 0.9266	1418.41	1.5433	1194	1.266
298.15 K, x1 = 1	1488.12	1.557	1153	1.065
303.15 K, x1 = 0.0623	842.3	1.4332	1291	5.889
303.15 K, x1 = 0.1321	864.98	1.4403	1282	4.765
303.15 K, x1 = 0.202	891.19	1.4472	1276	3.838
303.15 K, x1 = 0.2694	920.76	1.4542	1272	3.126
303.15 K, x1 = 0.336	952.81	1.4611	1270	2.577
303.15 K, x1 = 0.3981	986.69	1.4678	1268	2.197
303.15 K, x1 = 0.4625	1026.09	1.475	1266	1.907
303.15 K, x1 = 0.5272	1069.83	1.4826	1264	1.702
303.15 K, x1 = 0.5918	1117.3	1.4906	1261	1.548
303.15 K, x1 = 0.6627	1173.8	1.5	1254	1.458
303.15 K, x1 = 0.7278	1229.12	1.5092	1241	1.39
303.15 K, x1 = 0.7941	1288.41	1.5191	1226	1.355
303.15 K, x1 = 0.8633	1351.6	1.5303	1206	1.297
303.15 K, x1 = 0.9266	1410.1	1.5412	1183	1.205
303.15 K, x1 = 1	1481.4	1.555	1138	1.005
308.15 K, x1 = 0.0623	837.02	1.4306	1279	5.101
308.15 K, x1 = 0.1321	859.74	1.4376	1273	4.181
308.15 K, x1 = 0.202	886.06	1.4447	1267	3.414
308.15 K, x1 = 0.2694	915.17	1.4517	1263	2.814
308.15 K, x1 = 0.336	947.49	1.4587	1259	2.35
308.15 K, x1 = 0.3981	981.89	1.4655	1254	2.004
308.15 K, x1 = 0.4625	1021.03	1.4728	1251	1.722
308.15 K, x1 = 0.5272	1064.57	1.4805	1247	1.522
308.15 K, x1 = 0.5918	1111.88	1.4886	1241	1.37
308.15 K, x1 = 0.6627	1168.02	1.4981	1232	1.265
308.15 K, x1 = 0.7278	1222.21	1.5072	1218	1.192
308.15 K, x1 = 0.7941	1279.2	1.5171	1203	1.149
308.15 K, x1 = 0.8633	1339.82	1.528	1183	1.099
308.15 K, x1 = 0.9266	1398.8	1.5388	1161	1.052
308.15 K, x1 = 1	1474.58	1.553	1122	0.972

CCCCC(CC)CO (stereo not given) [2-ethyl-1-hexanol] + Clc1ccccc1
Settings	mass density, [1] [kg/m3]	refractive index, [2]	speed of sound, [1] [m/s]	viscosity, [1] [mPa·s]
298.15 K, x2 = 0	829.07	1.4287	1319	8.418
298.15 K, x2 = 0.0779	838.66	1.435	1313	6.736
298.15 K, x2 = 0.1381	847.37	1.44	1308	5.641
298.15 K, x2 = 0.1974	857.02	1.4453	1304	4.684
298.15 K, x2 = 0.2716	870.89	1.4523	1298	3.718
298.15 K, x2 = 0.3399	885.34	1.4591	1292	2.996
298.15 K, x2 = 0.4119	902.38	1.4666	1287	2.38
298.15 K, x2 = 0.4766	919.17	1.4734	1282	1.969
298.15 K, x2 = 0.5461	938.46	1.4807	1277	1.628
298.15 K, x2 = 0.6124	958.72	1.4879	1272	1.381
298.15 K, x2 = 0.6892	983.65	1.4961	1268	1.197
298.15 K, x2 = 0.758	1007.82	1.5034	1265	1.06
298.15 K, x2 = 0.8189	1029.88	1.5095	1264	0.969
298.15 K, x2 = 0.8888	1056.63	1.5161	1263	0.893
298.15 K, x2 = 0.9533	1081.91	1.521	1265	0.821
303.15 K, x2 = 0	825.39	1.4266	1301	7.144
303.15 K, x2 = 0.0779	834.41	1.4332	1295	5.817
303.15 K, x2 = 0.1381	842.5	1.4382	1291	4.906
303.15 K, x2 = 0.1974	852.03	1.4437	1286	4.121
303.15 K, x2 = 0.2716	865.78	1.4509	1280	3.268
303.15 K, x2 = 0.3399	880.07	1.4577	1275	2.671
303.15 K, x2 = 0.4119	897.12	1.4651	1269	2.147
303.15 K, x2 = 0.4766	914.02	1.472	1264	1.785
303.15 K, x2 = 0.5461	933.51	1.4793	1259	1.455
303.15 K, x2 = 0.6124	953.51	1.4863	1254	1.253
303.15 K, x2 = 0.6892	978.28	1.4943	1250	1.057
303.15 K, x2 = 0.758	1002.29	1.5015	1247	0.968
303.15 K, x2 = 0.8189	1024.42	1.5076	1246	0.881
303.15 K, x2 = 0.8888	1050.99	1.514	1245	0.81
303.15 K, x2 = 0.9533	1076.27	1.5186	1247	0.764
308.15 K, x2 = 0	821.68	1.4245	1283	6.09
308.15 K, x2 = 0.0779	829.62	1.4308	1277	4.854
308.15 K, x2 = 0.1381	837.63	1.4362	1273	4.032
308.15 K, x2 = 0.1974	846.84	1.4416	1268	3.363
308.15 K, x2 = 0.2716	860.76	1.4491	1263	2.689
308.15 K, x2 = 0.3399	875.1	1.4561	1257	2.171
308.15 K, x2 = 0.4119	892.15	1.4637	1252	1.749
308.15 K, x2 = 0.4766	908.93	1.4706	1247	1.45
308.15 K, x2 = 0.5461	928.26	1.4778	1242	1.221
308.15 K, x2 = 0.6124	948.46	1.4849	1237	1.068
308.15 K, x2 = 0.6892	973.49	1.4929	1233	0.96
308.15 K, x2 = 0.758	996.87	1.4998	1230	0.879
308.15 K, x2 = 0.8189	1018.95	1.5056	1228	0.824
308.15 K, x2 = 0.8888	1045.23	1.5116	1228	0.774
308.15 K, x2 = 0.9533	1070.96	1.5161	1229	0.719
